Source: US6525059B1, “Substituted pyrazoles as p38 kinase inhibitors” (G. D. Searle & Company, priority 1998, dated 2003)
Several values for one entry are separate records, joined by “and”; a condition that tells them apart may be missing. Equal entries are not always repeated. Structures can show the parent of a compound that is named as a salt. Where two headings read alike, the source gives them in different places.

Experiments:
TNF-α [1] = test: LPS stimulation of TNF production by U937 cells; assay type: cell-based, human; conditions: Homo sapiens, U-937, LPS-stimulated U937 cells; read-out: U937 IC50
Summary of the method: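 PMA-differentiated human U937 cells (20 ng/ml PMA, 24 h, then 24-48 h rest) at 2 million cells/ml, 0.1% DMSO final, stimulated with E. coli LPS (100 ng/ml final) for 4 h at 37° C. TNF-α in medium measured by ELISA; IC50 in μM.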

human p38 kinase alpha = target: T1, human p38 kinase alpha (Homo sapiens, UniProt Q16539); test: p38 kinase in vitro assay, phosphorylation of biotinylated PHAS-I with gamma 32P-ATP; assay type: biochemical; conditions: p38α in vitro, PHAS-I assay procedure; read-out: p38^1 IC50
T1 construct: The coding region of the human p38a cDNA was obtained by PCR-amplification from RNA isolated from the human monocyte cell line THP.1; GST (N); made in house; host or cells: E. coli DH10B
T1 sequence (Q16539 whole entry): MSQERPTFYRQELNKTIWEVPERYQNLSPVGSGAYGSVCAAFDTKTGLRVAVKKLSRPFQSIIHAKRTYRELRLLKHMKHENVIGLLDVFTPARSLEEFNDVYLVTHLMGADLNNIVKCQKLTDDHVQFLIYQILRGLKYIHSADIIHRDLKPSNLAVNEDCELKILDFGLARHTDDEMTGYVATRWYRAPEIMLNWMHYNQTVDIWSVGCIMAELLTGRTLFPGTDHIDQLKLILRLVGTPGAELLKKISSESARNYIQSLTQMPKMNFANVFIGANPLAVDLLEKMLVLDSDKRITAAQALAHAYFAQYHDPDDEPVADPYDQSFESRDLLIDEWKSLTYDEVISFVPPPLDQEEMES
Summary of the method: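 MKK6-activated human p38α phosphorylates biotinylated PHAS-I with γ-32P-ATP in 25 mM HEPES pH 7.5, 10 mM Mg acetate, 50 μM unlabeled ATP, 1% DMSO, 30 °C for 1 h or overnight. Compounds at 100–0.001 μM (10-fold steps, triplicate); substrate captured on streptavidin filter plates and counted by scintillation.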

[2] = target: T2, human GST-p38 kinase alpha (Homo sapiens, UniProt Q16539); test: p38 kinase in vitro assay, second format, phosphorylation of EGFRP with 33P-ATP; assay type: biochemical
T2 construct: The coding region of the human p38a cDNA was obtained by PCR-amplification from RNA isolated from the human monocyte cell line THP.1; made in house; host or cells: E. coli DH10B
T2 sequence (Q16539 whole entry): as above
Experimental: A second assay format was also employed that is based on p38 kinase alpha induced phosphorylation of EGFRP (epidermal growth factor receptor peptide, a 21 mer) in the presence of ^33P-ATP. Compounds were tested in 10 fold serial dilutions over the range of 100 μM to 0.001 μM in 10% DMSO. Each concentration of inhibitor was tested in triplicate. Compounds were evaluated in 50 μl reaction volumes in the presence of 25 mM Hepes pH 7.5, 10 mM magnesium acetate, 4% glycerol, 0.4% bovine serum albumin, 0.4 mM DTT, 50 μM unlabeled ATP, 25 μg EGFRP (200 μM), and 0.05 uCi gamma ^33P-ATP. Reactions were initiated by addition of 0.09 μg of activated, purified human GST-p38 kinase alpha. Activation was carried out using GST-MKK6 (5:1, p38: MKK6) for one hour at 30° C. in the presence of 50 μM ATP. Following incubation for 60 minutes at room temperature, the reaction was stopped by addition of 150 μl of AG 1×8 resin in 900 mM sodium formate buffer, pH 3.0 (1 volume resin to 2 volumes buffer). The mixture was mixed three times with pipetting and the resin was allowed to settle. A total of 50 μl of clarified solution head volume was transferred from the reaction wells to Microlite-2 plates. 150 μl of Microscint 40 was then added to each well of the Microlite plate, and the plate was sealed, mixed, and counted.

human TNF = test: TNF inhibition: human whole blood assay; assay type: cell-based; conditions: Homo sapiens, read-out: TNF Inhibition-Human Whole Blood Assay
Experimental: Human peripheral blood is obtained in heparinized tubes. A 190 μL aliquot of blood is placed in each well of a 96 well u-bottom plate. […] After one hour of incubation at 37° C., […] of lipopolysaccharide (Salmonella typhosa, Sigma) in phosphate buffered saline is added resulting in a final concentration of […]. After four to five hours of incubation at 37° C., the supernatants are harvested and assayed at 1:10 or 1:20 dilutions for human TNF using ELISA.

TNF-α [3] = test: Rat assay: LPS-challenged rats, serum TNF-α by ELISA; assay type: in vivo; conditions: Rattus norvegicus, po; for inhibition in vivo at 3 mg/kg: read-out: Rat LPS Assay % Inhibition; for inhibition in vivo at 10 mg/kg: Table 9, dose 10 mg/kg
Experimental: The efficacy of the novel compounds in blocking the production of TNF also was evaluated using a model based on rats challenged with LPS. Male Harlen Lewis rats [Sprague Dawley Co.] were used in this model. Each rat weighed approximately 300 g and was fasted overnight prior to testing. Compounds administration was typically by oral gavage (although intraperitoneal, subcutaneous and intravenous administration were also used in a few instances) 1 to 24 hours prior to the LPS challenge. Rats were administered 30 μg/kg LPS [salmonella typhosa, Sigma Co.] intravenously via the tail vein. Blood was collected via heart puncture 1 hour after the LPS challenge. Serum samples were stored at −20° C. until quantitative analysis of TNF-α by Enzyme Linked-Immuno-Sorbent Assay (“ELISA”) [Biosource]. Additional details of the assay are set forth in Perretti, M., et al., Br. J. Pharmacol. (1993), 110, 868-874, which is incorporated by reference in this application.
In vivo assessment of the ability of the compounds to inhibit LPS-stimulated TNF release in the rat is shown in the column identified as:
wherein in the dose is milligram per kilogram (mpk) administered by oral gavage and the predose time indicates the number of hours before LPS challenge when the compound is administered.

[4] = p38α in vitro, EGFRP assay procedure, read-out: p38^2 IC50
[5] = Table 10, 10% DMSO, @ 1.0 hour, read-out: p38α Kinase Assay IC50
[6] = Table 8, 10% DMSO, read-out: p38α Kinase Assay IC50
[7] = Table 9, 10% DMSO, read-out: p38α Kinase Assay IC50

Compound: COc1ccc(CNc2cc(-c3c[nH]nc3-c3ccc(Cl)cc3)ccn2)cc1 [Example A-246, 4-[3-(4-chlorophenyl)-1H-pyrazol-4-yl]-N-[(4-methoxy-phenyl)methyl]-2-pyridinamine]
- IC50 (TNF-α [1]): 495 nM
- IC50 (human p38 kinase alpha): 403 nM
- IC50 [2, 4]: 592 nM

Compound: O=C(O)CCC(=O)N1CCN(c2n[nH]c(-c3ccc(Cl)cc3)c2-c2ccncc2)CC1 [A-321 (dihydrate), 4-[5-(4-chlorophenyl)-4-(4-pyridinyl)-1H-pyrazol-3-yl]-γ-oxo-1-piperazinebutanoic acid, dihydrate]
- IC50 (human TNF): > 25000 nM

Compound: O=C(C(=C(SCC1OCCO1)SCC1OCCO1)c1ccncc1)c1ccc(F)cc1 [Example A-449]
- IC50 [2, 5]: 59000 nM

Compound: CS(=O)(=O)N1CCN(c2n[nH]c(-c3ccc(Cl)cc3)c2-c2ccncc2)CC1 [Example A-320, 1-[5-(4-chlorophenyl)-4-(4-pyridinyl)-1H-pyrazol-3-yl]-4-(methylsulfonyl)piperazine, monohydrate]
- IC50 [2, 6]: 50 nM and 150 nM
- inhibition in vivo at 3 mg/kg (TNF-α [3]; Table 8, dose 3.0 mg/kg): 1%

Compound: O=C1CCN(c2n[nH]c(-c3ccc(F)cc3)c2-c2ccncc2)CC1 [Example A-378, 1-[5-(4-fluorophenyl)-4-(4-pyridinyl)-1H-pyrazol-3-yl]-4-piperidinone]
- IC50 [2, 7]: 6200 nM
- inhibition in vivo at 10 mg/kg (TNF-α [3]): 73%

Compound: O=C(C(=C1SCS1)c1ccncc1)c1ccc(OC(F)(F)F)cc1 [Example A-395]
- IC50 [2, 5]: > 100000 nM

Compound: Fc1cc(-c2c[nH]nc2-c2ccc(F)c(F)c2)ccn1 [Example A-257, 4-[3-(3,4-difluorophenyl)-1H-pyrazol-4-yl]-2-fluoropyridine]
- IC50 (TNF-α [1]): 517 nM
- IC50 (human p38 kinase alpha): 1080 nM
- IC50 [2, 4]: < 10 nM

Compound: Cn1cc(-c2ccnc(F)c2)c(-c2ccc(F)cc2)n1 [Example A-256, 2-fluoro-4-[3-(4-fluorophenyl)-1-methyl-1H-pyrazol-4-yl]pyridine]
- IC50 (TNF-α [1]): 456 nM
- IC50 [2, 4]: 813 nM

Compound: Clc1ccc(-c2n[nH]c(SC3CCNCC3)c2-c2ccncc2)cc1 [A-459 (salt)]
- IC50 [2, 5]: 100 nM

Compound: Fc1ccc(-c2n[nH]cc2-c2ccnc(NCCN3CCCCC3)c2)cc1 [Example A-375, 4-[3-(4-fluorophenyl)-1H-pyrazol-4-yl]-N-[2-(1-piperidinyl)ethyl]-2-pyridinamine]
- IC50 [2, 7]: 2300 nM
- inhibition in vivo at 20 mg/kg (TNF-α [3]; Table 9, dose 20 mg/kg): 43%

Compound: Sc1[nH]nc(-c2ccc(Cl)cc2)c1-c1ccncc1 [Example A-455]
- IC50 [2, 5]: 12900 nM

Compound: O=C1CCC(Nc2cc(-c3c[nH]nc3-c3ccc(F)cc3)ccn2)CC1 [Example A-387, 4-[[4-[3-(4-fluorophenyl)-1H-pyrazol-4-yl]-2-pyridinyl]amino]cyclohexanone]
- IC50 [2, 7]: 5 nM
- inhibition in vivo at 20 mg/kg (TNF-α [3]; Table 9, dose 20 mg/kg): 83%

Compound: Ic1ccc(-c2n[nH]cc2-c2ccncc2)cc1 [Example A-250, 4-[3-(4-iodophenyl)-1H-pyrazol-4-yl]pyridine]
- IC50 [2, 4]: 2870 nM

Compound: Cn1cc(-c2ccncc2)c(-c2cccc(C(F)(F)F)c2)n1 [Example A-238, 4-[1-methyl-3-[3-(trifluoromethyl)phenyl]-1H-pyrazol-4-yl]pyridine]
- IC50 (TNF-α [1]): 402 nM
- IC50 [2, 4]: 177 nM

Compound: Cc1cccc(-c2nn(C)cc2-c2ccnc(C)c2)c1 [Example A-235, 2-methyl-4-[1-methyl-3 (or 5)-(3-methylphenyl)-1H-pyrazol-4-yl]pyridine]
- IC50 [2, 4]: 104 nM

Compound: Fc1ccc(-c2n[nH]c(N3CCC4(CC3)OCCO4)c2-c2ccncc2)cc1 [Example A-380, 8-[5-(4-fluorophenyl)-4-(4-pyridinyl)-1H-pyrazol-3-yl]-1,4-dioxa-8-azaspiro[4.5]decane]
- IC50 [2, 7]: 850 nM
- inhibition in vivo at 3 mg/kg (TNF-α [3]; Table 9, dose 3 mg/kg): 33%
- inhibition in vivo at 10 mg/kg (TNF-α [3]): 62%
- inhibition in vivo at 30 mg/kg (TNF-α [3]; Table 9, dose 30 mg/kg): 85%

Compound: CC1CN(c2[nH]nc(-c3ccc(Cl)cc3)c2-c2ccncc2)CCN1 (stereo not drawn) [Example A-343, 1-[5-(4-chlorophenyl)-4-(4-pyridinyl)-1H-pyrazol-3-yl]-3-methylpiperazine]
- IC50 [2, 6]: 16 nM
- inhibition in vivo at 20 mg/kg (TNF-α [3]; Table 8, dose 20.0 mg/kg): 96%

Compound: Clc1ccc(-c2n[nH]cc2-c2ccnc(NCc3ccccn3)c2)cc1 [Example A-247, N-[4-[3-(4-chlorophenyl)-1H-pyrazol-4-yl]-2-pyridinyl]-2-pyridinemethanamine]
- IC50 (TNF-α [1]): 166 nM
- IC50 [2, 4]: < 10 nM

Compound: C=CCn1cc(-c2ccncc2)c(-c2ccc(F)cc2)n1 [Example A-385, 4-[3-(4-fluorophenyl)-1-(2-propenyl)-1H-pyrazol-4-yl]pyridine, monohydrochloride]
- IC50 [2, 7]: 180 nM and 1250 nM

Compound: Fc1ccc(-c2n[nH]cc2-c2ccnc(NCc3cccc(F)c3)c2)cc1 [Example A-254, N-[(3-fluorophenyl)methyl]-4-[3-(4-fluorophenyl)-1H-pyrazol-4-yl]-2-pyridinamine]
- IC50 (TNF-α [1]): 141 nM
- IC50 [2, 4]: 81 nM

Compound: O=C(O)C(Cc1cnc[nH]1)Sc1[nH]nc(-c2ccc(Cl)cc2)c1-c1ccncc1 (stereo not drawn) [Example A-471]
- IC50 [2, 5]: 4920 nM

Compound: COc1ccccc1N1CCN(c2n[nH]c(-c3ccc(Cl)cc3)c2-c2ccncc2)CC1 [Example A-336, 1-[5-(4-chlorophenyl)-4-(4-pyridinyl)-1H-pyrazol-3-yl]-4-(2-methoxyphenyl)piperazine]
- IC50 [2, 6]: 1160 nM

Compound: O=C(c1n[nH]c(-c2ccc(F)cc2)c1-c1ccncc1)N1CCNCC1 [A-314, Step 1, 1-[[5-(4-fluorophenyl)-4-(4-pyridinyl)-1H-pyrazol-3-yl]carbonyl]piperazine, monhydrate]
- IC50 [2, 6]: 370 nM

Compound: OC1CCN(c2[nH]nc(-c3ccc(F)cc3)c2-c2ccncc2)CC1 [Example A-379, 1-[5-(4-fluorophenyl)-4-(4-pyridinyl)-1H-pyrazol-3-yl]-4-piperidinol]
- IC50 [2, 7]: 190 nM
- inhibition in vivo at 10 mg/kg (TNF-α [3]): 61%

Compound: Cc1cccc(C(=O)Cc2ccncc2)c1 [A-389, Step 1, 1-tolyl-2-(4-pyridyl)ethanone]
- IC50 [2, 5]: 1720 nM

Compound: C#CCNc1nccc(-c2cn[nH]c2-c2ccc(F)cc2)n1 [Example A-324, 4-[3-(4-fluorophenyl)-1H-pyazol-4-yl]-N-2-propynyl-2-pyrimidinamine]
- IC50 [2, 6]: 80 nM
- inhibition in vivo at 3 mg/kg (TNF-α [3]; Table 8, dose 3.0 mg/kg): 44%

Compound: CCOC(=O)N1CCC(Nc2n[nH]c(-c3ccc(Cl)cc3)c2-c2ccncc2)CC1 [Example A-331, ethyl 4-[[5-(4-chlorophenyl)-4-(4-pyridinyl)-1H-pyrazol-3-yl]amino]-1-piperidinecarboxylate]
- IC50 [2, 6]: 640 nM
- inhibition in vivo at 20 mg/kg (TNF-α [3]; Table 8, dose 20.0 mg/kg): 13%

Compound: O=C(O)CSc1[nH]nc(-c2ccc(Cl)cc2)c1-c1ccncc1 [Example A-461]
- IC50 [2, 5]: 30600 nM

Compound: Fc1ccc(-c2n[nH]cc2-c2ccnc(/C=C/c3ccccc3)c2)cc1 [Example A-244, (E)-4-[3-(4-fluorophenyl)-1H-pyrazol-4-yl]-2-(2-phenylethenyl)pyridine]
- IC50 [2, 4]: 99 nM
